According to a compilation of properties of binary mixtures (doi:10.1021/jp3100377):

Test: xn = mol fraction of the nth substance listed
Details: 100 kPa

CC(=O)[O-].CC[n+]1ccn(C)c1 + O
viscosity [mPa·s]
Details	293.15 K	303.15 K	313.15 K	323.15 K	333.15 K	343.15 K	353.15 K
x2 = 0	203	104.8	61.1	38.9	26.56	19.01	14.24
x2 = 0.2088	–	77.9	–	–	20.8	–	–
x2 = 0.4	88.6	–	–	23.04	16.47	–	9.27
x2 = 0.6014	51.8	32.6	21.88	15.4	11.09	8.39	–
x2 = 0.8023	20.45	13.51	9.41	6.6	4.95	–	3.021
